{"source": "patent US10022392B2", "about": "“Compositions based on methyl cyclodextrins for the treatment and/or prevention of diseases by increasing the HDL cholesterol level” (ROQUETTE FRERES, priority 2013, dated 2018)", "key": {"ABCA1": {"system": "ABCA1", "experiment": "Expression of the ABCA1 transporter (real-time PCR) in endothelial cells treated with cyclodextrins", "assay_type": "cell-based, bovine", "conditions": "1 mM cyclodextrin, 24 hours, ABAEs, compared with control, FIG. 3", "experimental": "(§1) Cells: The endothelial cells were adult bovine aortic endothelial cells (ABAEs).\n(§2) The cells were then cultured in this radioactive medium for 36 hours in order to allow them to incorporate the radioactive cholesterol. The medium was then removed and the cells were rinsed twice with warm DMEM containing 0.1% of bovine serum albumin (BSA). The cells were then cultured in DMEM/1 ng/ml bFGF containing 1 mM of each cyclodextrin for 24 hours (1.4 ml/well).\n(§3) After 24 hours of treatment with each cyclodextrin, the cells were rinsed twice in cold PBS (8 g/l NaCl, 0.2 g/l KCl, 0.2 g/l KH2PO4, 2.87 g/l NA2HPO4 (12H2O), pH 7.4) and lyzed using 500 μl of RLT lysis buffer […]. Three wells were used and pooled for each condition. […] At the end of this purification step, the mRNA concentration was estimated by virtue of the absorbance values obtained at 260, 280 and 320 nm. […]\n(§4) The amplification was carried out over the course of 40 cycles with a hybridization temperature of 60° C. using the Biorad CFX96 thermocycler. For each pair of primers, the amplification specificity was verified by producing melting curves and the efficiency was determined by producing dilution curves. The expression levels measured were then normalized on the expression levels of β-actin and cyclophillin B using the ΔΔCt method. […]"}, "[1]": {"system": "adult bovine aortic endothelial cells (ABAEs)", "experiment": "Cholesterol efflux: 3H-cholesterol captured by the cyclodextrins from aortic endothelial cells", "assay_type": "cell-based", "conditions": "1 mM cyclodextrin, 2 hours, FIG. 2", "excerpt": "as §1\nCyclodextrins: the cyclodextrins used were the following: a non-methylated β-cyclodextrin, hereinafter denoted “β-CD”, a methyl-β-cyclodextrin having an MS of 0.2, hereinafter denoted “MβCD-0.2”, a methyl-β-cyclodextrin having an MS of 0.67 (KLEPTOSE® CRYSMEB, ROQUETTE FRERES), hereinafter denoted “MβCD-0.67”, a methyl-β-cyclodextrin having an MS of 1.8 (RAMEB®, CYCLOLAB), hereinafter denoted “MβCD-1.8”.\n0.5 μCi/ml of 3H-cholesterol was incorporated into serum (10% horse serum/calf serum (HS/CS)) for 6 hours at 37° C. for the purpose of obtaining a culture medium enriched with radioactive cholesterol. After this incorporation, the culture medium was finalized by incorporation of DMEM (Dulbecco's Modified Eagle's medium) supplemented with 10% HS, 10% CS, 1 ng/ml bFGF (basic fibroblast growth factor), 2 mM glutamine and 50 μg/ml gentamicin. […]\nTwo hours after the beginning of the incubation in the presence of each cyclodextrin, 500 μl of medium were removed and the radioactive cholesterol captured by the cyclodextrin was assayed by means of a scintillation counter (Tri-carb 2100TR). The radioactivity was measured in disintegrations per minute (DPM). The capacity of each cyclodextrin to capture cellular cholesterol was then estimated by performing the following calculation: ((1.4 ml/0.5 ml)×DPM measured). […]"}, "ABCG1": {"system": "ABCG1", "experiment": "Expression of the ABCG1 transporter (real-time PCR) in endothelial cells treated with cyclodextrins", "assay_type": "cell-based, bovine", "conditions": "1 mM cyclodextrin, 24 hours, ABAEs, compared with control, FIG. 4", "experimental": "as §1, §2, §3, §4"}}}
{"smiles": "OC[C@H]1O[C@@H]2O[C@H]3[C@H](O)[C@@H](O)[C@@H](O[C@H]4[C@H](O)[C@@H](O)[C@@H](O[C@H]5[C@H](O)[C@@H](O)[C@@H](O[C@H]6[C@H](O)[C@@H](O)[C@@H](O[C@H]7[C@H](O)[C@@H](O)[C@@H](O[C@H]8[C@H](O)[C@@H](O)[C@@H](O[C@H]1[C@H](O)[C@H]2O)O[C@@H]8CO)O[C@@H]7CO)O[C@@H]6CO)O[C@@H]5CO)O[C@@H]4CO)O[C@@H]3CO", "note": "[βCD, β-cyclodextrin]", "values": [{"measurement": "ABCA1 receptor expression (mRNA)", "setting": "ABCA1", "result": "strongly decreasing"}, {"measurement": "Cholesterol efflux (radioactive cholesterol captured by the cyclodextrin)", "setting": "[1]", "result": "rapid and considerable efflux"}, {"measurement": "ABCG1 receptor expression (mRNA)", "setting": "ABCG1", "result": "strongly decreasing"}]}
